Test results as given in PubChem BioAssay (NCI).
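The concentration for 50% growth inhibition is given as GI50. Definition used: TGI = concentration required for complete inhibition of growth.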 Where a SMILES comes first, the peptide text is derived from it. [ ]: non-standard residue; d: D form. The star is where a group is joined. Dolaproine = CO[C@@H]([C@@H]1CCCN1)[C@@H](C)C(=O)O; Dil = CC[C@H](C)[C@H](NC)[C@@H](CC(=O)O)OC; X2 = C[C@@H](N*)[C@@H](O)c1ccccc1; NMeV = CN[C@H](C(=O)O)C(C)C

Key:
Assay in all cases: NCI tumour cell line growth inhibition, 384-well format
[1] = test system: 786-0 renal
[2] = test system: A498 renal
[3] = test system: A549 NSCLC
[4] = test system: ACHN renal
[5] = test system: BT-549 breast
[6] = test system: CAKI-1 renal
[7] = test system: CCRF-CEM leukemia
[8] = test system: COLO 205 colon
[9] = test system: DU-145 prostate
[10] = test system: HCC-2998 colon
[11] = test system: HCT-116 colon
[12] = test system: HCT-15 colon
[13] = test system: HL-60(TB) leukemia
[14] = test system: HOP-62 NSCLC
[15] = test system: HOP-92 NSCLC
[16] = test system: HT29 colon
[17] = test system: IGROV1 ovarian
[18] = test system: K-562 leukemia
[19] = test system: KM12 colon
[20] = test system: LOX IMVI melanoma
[21] = test system: M14 melanoma
[22] = test system: MALME-3M melanoma
[23] = test system: MCF7 breast
[24] = test system: MDA-MB-231 breast
[25] = test system: MDA-MB-435 melanoma
[26] = test system: MDA-MB-468 breast
[27] = test system: MOLT-4 leukemia
[28] = test system: NCI-H226 lung

CC[C@H](C)[C@@H]([C@@H](CC(=O)N1CCC[C@H]1[C@H](OC)[C@@H](C)C(=O)N[C@H](C)[C@@H](O)c1ccccc1)OC)N(C)C(=O)[C@@H](NC(=O)[C@@H](NC)C(C)C)C(C)C (H-[NMeV]V[Dil][Dolaproine]-X2)
GI50 [1]: < 10 nM
TGI [1]: < 10 nM
GI50 [2]: < 10 nM
TGI [2]: 11.2 nM
GI50 [3]: < 10 nM
TGI [3]: < 10 nM
GI50 [4]: < 10 nM
TGI [4]: > 100000 nM
GI50 [5]: < 10 nM
TGI [5]: < 10 nM
GI50 [6]: < 10 nM
TGI [6]: 24400 nM
GI50 [7]: < 10 nM
TGI [7]: < 10 nM
GI50 [8]: < 10 nM
TGI [8]: < 10 nM
GI50 [9]: < 10 nM
TGI [9]: < 10 nM
GI50 [10]: < 10 nM
TGI [10]: < 10 nM
GI50 [11]: < 10 nM
TGI [11]: < 10 nM
GI50 [12]: < 10 nM
TGI [12]: 63.2 nM
GI50 [13]: < 10 nM
TGI [13]: < 10 nM
GI50 [14]: < 10 nM
TGI [14]: 30.4 nM
GI50 [15]: < 10 nM
TGI [15]: < 10 nM
GI50 [16]: < 10 nM
TGI [16]: < 10 nM
GI50 [17]: < 10 nM
TGI [17]: 91.6 nM
GI50 [18]: < 10 nM
TGI [18]: < 10 nM
GI50 [19]: < 10 nM
TGI [19]: < 10 nM
GI50 [20]: < 10 nM
TGI [20]: < 10 nM
GI50 [21]: < 10 nM
TGI [21]: < 10 nM
GI50 [22]: < 10 nM
TGI [22]: < 10 nM
GI50 [23]: < 10 nM
TGI [23]: 121 nM
GI50 [24]: < 10 nM
TGI [24]: < 10 nM
GI50 [25]: < 10 nM
TGI [25]: < 10 nM
GI50 [26]: < 10 nM
TGI [26]: < 10 nM
GI50 [27]: < 10 nM
TGI [27]: < 10 nM
GI50 [28]: < 10 nM
